Structures are written as SMILES.

Chain of LFA-1 binding to ICAM-1 (P20701 26-1170): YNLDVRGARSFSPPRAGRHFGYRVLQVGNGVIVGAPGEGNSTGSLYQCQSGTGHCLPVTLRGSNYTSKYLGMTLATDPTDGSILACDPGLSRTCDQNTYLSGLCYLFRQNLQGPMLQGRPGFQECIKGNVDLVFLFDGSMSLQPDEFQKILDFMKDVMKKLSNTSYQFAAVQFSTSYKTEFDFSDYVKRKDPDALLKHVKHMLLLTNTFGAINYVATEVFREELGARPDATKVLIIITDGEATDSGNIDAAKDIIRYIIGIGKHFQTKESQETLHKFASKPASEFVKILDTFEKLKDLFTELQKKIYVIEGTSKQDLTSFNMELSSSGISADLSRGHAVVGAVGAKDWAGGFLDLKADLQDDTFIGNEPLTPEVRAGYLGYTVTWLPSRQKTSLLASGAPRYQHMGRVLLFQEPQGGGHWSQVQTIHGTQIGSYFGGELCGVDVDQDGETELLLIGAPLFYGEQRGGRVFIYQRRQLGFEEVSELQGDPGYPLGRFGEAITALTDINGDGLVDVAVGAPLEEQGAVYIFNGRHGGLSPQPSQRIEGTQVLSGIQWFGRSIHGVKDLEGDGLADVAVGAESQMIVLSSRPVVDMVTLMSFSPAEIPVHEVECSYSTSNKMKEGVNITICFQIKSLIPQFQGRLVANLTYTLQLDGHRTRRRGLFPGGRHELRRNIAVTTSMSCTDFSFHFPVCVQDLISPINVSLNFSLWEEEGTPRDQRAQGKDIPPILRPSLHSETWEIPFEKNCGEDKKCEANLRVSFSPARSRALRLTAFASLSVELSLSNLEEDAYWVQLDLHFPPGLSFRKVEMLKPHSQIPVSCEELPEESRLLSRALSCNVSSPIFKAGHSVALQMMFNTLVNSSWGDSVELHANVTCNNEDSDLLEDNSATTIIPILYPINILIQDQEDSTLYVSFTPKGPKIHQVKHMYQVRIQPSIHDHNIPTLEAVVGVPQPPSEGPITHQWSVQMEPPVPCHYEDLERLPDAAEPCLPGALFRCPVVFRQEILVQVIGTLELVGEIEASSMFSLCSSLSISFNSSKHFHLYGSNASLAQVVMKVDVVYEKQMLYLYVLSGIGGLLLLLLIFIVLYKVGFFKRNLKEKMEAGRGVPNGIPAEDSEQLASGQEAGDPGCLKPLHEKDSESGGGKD
Chain of LFA-1 binding to ICAM-1 (P05107 23-769): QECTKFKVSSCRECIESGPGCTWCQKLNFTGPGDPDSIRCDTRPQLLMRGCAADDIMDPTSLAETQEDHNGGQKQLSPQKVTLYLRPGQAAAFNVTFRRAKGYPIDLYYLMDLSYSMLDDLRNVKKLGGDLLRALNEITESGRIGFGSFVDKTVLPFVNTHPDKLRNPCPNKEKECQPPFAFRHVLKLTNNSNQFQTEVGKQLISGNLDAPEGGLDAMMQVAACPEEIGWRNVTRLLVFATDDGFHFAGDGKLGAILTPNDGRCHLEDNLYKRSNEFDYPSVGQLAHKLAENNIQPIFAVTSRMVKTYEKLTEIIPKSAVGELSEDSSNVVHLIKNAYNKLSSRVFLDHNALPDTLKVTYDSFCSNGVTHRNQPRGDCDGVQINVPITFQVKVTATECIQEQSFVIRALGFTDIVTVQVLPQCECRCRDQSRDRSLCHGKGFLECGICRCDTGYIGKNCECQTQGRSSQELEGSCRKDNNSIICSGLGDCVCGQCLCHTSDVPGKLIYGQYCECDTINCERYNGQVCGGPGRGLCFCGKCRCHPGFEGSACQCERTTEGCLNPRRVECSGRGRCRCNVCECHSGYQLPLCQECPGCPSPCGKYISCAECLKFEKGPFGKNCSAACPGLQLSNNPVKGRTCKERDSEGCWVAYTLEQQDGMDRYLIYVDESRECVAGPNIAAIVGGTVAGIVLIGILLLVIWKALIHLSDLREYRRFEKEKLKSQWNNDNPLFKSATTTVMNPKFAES

The experiment addresses LFA-1 binding to ICAM-1 (Homo sapiens, UniProt P05107+P20701). The experiment is described as follows: Inhibition of LFA-1 binding to ICAM-1 (LFA-1/Biotin-sICAM-1 AlphaScreen molecular assay). The note with it: highest compound concentration 1 μM in 1% DMSO, 37° C., 90 minutes. The essentials: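 AlphaScreen binding of purified LFA-1 to biotinylated sICAM-1 in DPBS with Ca/Mg, 2 mM MgCl2, 0.1% BSA, pH 7.1; compound top concentration 1 μM in 1% DMSO, 90 min at 37 °C. Detection with TS2/4 anti-LFA-1 acceptor beads (10 μg/mL final) and streptavidin donor beads (15 μg/mL final), room temperature in the dark.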
In general terms: Alpha assays give light when donor and acceptor beads are brought close together.
By IC50 is commonly meant the concentration that gives 50% inhibition. Higher therefore signals lower potency. In turn, `C[C@@H](O)CNC(=O)c1ccc(C2(NC(=O)C3(NC(=O)c4cnc5n4[C@](C)(Cc4ccc(C#N)cc4)C(=O)N5c4cc(Cl)cc(Cl)c4)CC3)CC2)nc1` [compound 128] displayed an IC50 of 0.47 nM.
With `C[C@@]1(Cc2ccc(C#N)cc2)C(=O)N(c2cc(Cl)cc(Cl)c2)c2ncc(C(=O)NC3(C(=O)NC4(c5cc(C(=O)NC(CO)CO)ccn5)CC4)CC3)n21` [compound 129], the half-maximal inhibitory concentration (IC50) worked out at 0.55 nM. This IC50 and that of the compound before are within 1.5-fold of each other.
In turn, `C[C@@]1(Cc2ccc(C#N)cc2)C(=O)N(c2cc(Cl)cc(Cl)c2)c2ncc(C(=O)NC3(C(=O)NC4(c5ccc(C(=O)N6CC[C@H](O)C6)cn5)CC4)CC3)n21` [compound 130] came in with an IC50 of 0.74 nM.
As for `C[C@@]1(Cc2ccc(C#N)cc2)C(=O)N(c2cc(Cl)cc(Cl)c2)c2ncc(C(=O)NC3(C(=O)NC4(c5cc(C(=O)NCC(=O)O)ccn5)CC4)CC3)n21` [compound 131], the half-maximal inhibitory concentration (IC50) is 0.45 nM.
`CC(=O)NCCNC(=O)c1ccnc(C2(NC(=O)C3(NC(=O)c4cnc5n4[C@](C)(Cc4ccc(C#N)cc4)C(=O)N5c4cc(Cl)cc(Cl)c4)CC3)CC2)c1` [compound 132] had an IC50 of 0.37 nM.
Next, `C[C@@]1(Cc2ccc(C#N)cc2)C(=O)N(c2cc(Cl)cc(Cl)c2)c2ncc(C(=O)NC3(C(=O)NC4(c5ccc(C(=O)NCC(O)CO)cn5)CC4)CC3)n21` (stereo partly drawn) [compound 133]: 1.4 nM; `C[C@@]1(Cc2ccc(C#N)cc2)C(=O)N(c2cc(Cl)cc(Cl)c2)c2ncc(C(=O)NC3(C(=O)NC4(c5ccc(C(=O)NCCc6ccccc6)cn5)CC4)CC3)n21` [compound 134]: 2.2 nM; `C[C@@]1(Cc2ccc(C#N)cc2)C(=O)N(c2cc(Cl)cc(Cl)c2)c2ncc(C(=O)NC3(C(=O)NC4(c5cc(C(=O)N6CCCC6)ccn5)CC4)CC3)n21` [compound 135]: 0.79 nM.
Compound `C[C@@]1(Cc2ccc(C#N)cc2)C(=O)N(c2cc(Cl)cc(Cl)c2)c2ncc(C(=O)NC3(C(=O)NC4(c5ccc(C(=O)N6CCCCC6CO)cn5)CC4)CC3)n21` (stereo partly drawn) [compound 137] returned a half-maximal inhibitory concentration (IC50) of 0.68 nM.
`CCN(CC)C(=O)c1ccnc(C2(NC(=O)C3(NC(=O)c4cnc5n4[C@](C)(Cc4ccc(C#N)cc4)C(=O)N5c4cc(Cl)cc(Cl)c4)CC3)CC2)c1` [compound 138] registered an IC50 of 0.67 nM. The IC50 values of the last two compounds are within 1.5-fold of each other.
As for `CC(NC(=O)c1ccnc(C2(NC(=O)C3(NC(=O)c4cnc5n4[C@](C)(Cc4ccc(C#N)cc4)C(=O)N5c4cc(Cl)cc(Cl)c4)CC3)CC2)c1)c1cccnc1` (stereo partly drawn) [compound 139], the IC50 was 0.99 nM. The IC50 values of the last two compounds are within 1.5-fold of each other.
Turning to `CNC(=O)c1ccc(C2(NC(=O)C3(NC(=O)c4cnc5n4[C@](C)(Cc4ccc(C#N)cc4)C(=O)N5c4cc(Cl)cc(Cl)c4)CC3)CC2)nc1` [compound 140], the IC50 worked out at 1.5 nM.
With `C[C@H](CO)NC(=O)c1ccc(C2(NC(=O)C3(NC(=O)c4cnc5n4[C@](C)(Cc4ccc(C#N)cc4)C(=O)N5c4cc(Cl)cc(Cl)c4)CC3)CC2)nc1` [compound 141], the IC50 was 0.8 nM.
With `C[C@@]1(Cc2ccc(C#N)cc2)C(=O)N(c2cc(Cl)cc(Cl)c2)c2ncc(C(=O)NC3(C(=O)NC4(c5cc(C(=O)NCC6CC6)ccn5)CC4)CC3)n21` [compound 142] the figure was 1.3 nM; with `C[C@@]1(Cc2ccc(C#N)cc2)C(=O)N(c2cc(Cl)cc(Cl)c2)c2ncc(C(=O)NC3(C(=O)NC4(c5cccc(C(=O)N6CC[C@H](O)C6)n5)CC4)CC3)n21` [compound 143], 0.53 nM.
On to `C[C@@]1(Cc2ccc(C#N)cc2)C(=O)N(c2cc(Cl)cc(Cl)c2)c2ncc(C(=O)NC3(C(=O)NC4(c5cc(C(=O)NCCc6ccncc6)ccn5)CC4)CC3)n21` [compound 144], for which the IC50 was determined as 0.34 nM.
Take `C[C@@]1(Cc2ccc(C#N)cc2)C(=O)N(c2cc(Cl)cc(Cl)c2)c2ncc(C(=O)NC3(C(=O)NC4(c5cccc(C(=O)N6CCOCC6)n5)CC4)CC3)n21` [compound 145]: the IC50 was determined as 0.56 nM.
For the compound `CC(O)CNC(=O)c1ccnc(C2(NC(=O)C3(NC(=O)c4cnc5n4[C@](C)(Cc4ccc(C#N)cc4)C(=O)N5c4cc(Cl)cc(Cl)c4)CC3)CC2)c1` (stereo partly drawn) [compound 146], the IC50 came to 0.98 nM.
`C[C@@]1(Cc2ccc(C#N)cc2)C(=O)N(c2cc(Cl)cc(Cl)c2)c2ncc(C(=O)NC3(C(=O)NC4(c5ccc(C(=O)N6CCC(C(N)=O)CC6)cn5)CC4)CC3)n21` [compound 147] displayed an IC50 of 1.9 nM. Compared with the last compound, the IC50 is about 1.9-fold higher.
Next, `C[C@@]1(Cc2ccc(C#N)cc2)C(=O)N(c2cc(Cl)cc(Cl)c2)c2ncc(C(=O)NC3(C(=O)NC4(c5ccc(C(N)=O)cn5)CC4)CC3)n21` [compound 148]: 1.4 nM.
In turn, `CC(NC(=O)c1ccnc(C2(NC(=O)C3(NC(=O)c4cnc5n4[C@](C)(Cc4ccc(C#N)cc4)C(=O)N5c4cc(Cl)cc(Cl)c4)CC3)CC2)c1)c1ccccn1` (stereo partly drawn) [compound 149] returned an IC50 of 0.29 nM.
Compound `CC(CO)NC(=O)c1cccc(C2(NC(=O)C3(NC(=O)c4cnc5n4[C@](C)(Cc4ccc(C#N)cc4)C(=O)N5c4cc(Cl)cc(Cl)c4)CC3)CC2)n1` (stereo partly drawn) [compound 150] showed a concentration for half-maximal inhibition (IC50) of 0.81 nM.
`CC(NC(=O)c1cccc(C2(NC(=O)C3(NC(=O)c4cnc5n4[C@](C)(Cc4ccc(C#N)cc4)C(=O)N5c4cc(Cl)cc(Cl)c4)CC3)CC2)n1)c1ccncc1` (stereo partly drawn) [compound 151]: the IC50 was determined as 1.3 nM. Compared with the last compound, the IC50 is about 1.6-fold higher.
Compound `CC(C)(NC(=O)c1ccc(C2(NC(=O)C3(NC(=O)c4cnc5n4[C@](C)(Cc4ccc(C#N)cc4)C(=O)N5c4cc(Cl)cc(Cl)c4)CC3)CC2)nc1)c1ccccc1` [compound 152] yielded an IC50 of 0.62 nM.
In turn, `C[C@@]1(Cc2ccc(C#N)cc2)C(=O)N(c2cc(Cl)cc(Cl)c2)c2ncc(C(=O)NC3(C(=O)NC4(c5ccc(C(=O)N6CCN(S(C)(=O)=O)CC6)cn5)CC4)CC3)n21` [compound 153] yielded an IC50 of 1.5 nM.
The compound `CN(CCO)C(=O)c1ccc(C2(NC(=O)C3(NC(=O)c4cnc5n4[C@](C)(Cc4ccc(C#N)cc4)C(=O)N5c4cc(Cl)cc(Cl)c4)CC3)CC2)nc1` [compound 154] returned a half-inhibitory concentration (IC50) of 1 nM.
With `CC(NC(=O)c1ccc(C2(NC(=O)C3(NC(=O)c4cnc5n4[C@](C)(Cc4ccc(C#N)cc4)C(=O)N5c4cc(Cl)cc(Cl)c4)CC3)CC2)nc1)c1ccccn1` (stereo partly drawn) [compound 155] the figure was 0.74 nM; with `CN1CCN(C(=O)c2ccnc(C3(NC(=O)C4(NC(=O)c5cnc6n5[C@](C)(Cc5ccc(C#N)cc5)C(=O)N6c5cc(Cl)cc(Cl)c5)CC4)CC3)c2)CC1` [compound 156], 1.1 nM.
Take `CN1CCN(C(=O)c2cccc(C3(NC(=O)C4(NC(=O)c5cnc6n5[C@](C)(Cc5ccc(C#N)cc5)C(=O)N6c5cc(Cl)cc(Cl)c5)CC4)CC3)n2)CC1` [compound 157]: the IC50 turned out to be 0.52 nM.
The compound `CC(=O)NC1CCN(C(=O)c2ccc(C3(NC(=O)C4(NC(=O)c5cnc6n5[C@](C)(Cc5ccc(C#N)cc5)C(=O)N6c5cc(Cl)cc(Cl)c5)CC4)CC3)nc2)C1` (stereo partly drawn) [compound 158] yielded an IC50 of 0.9 nM. This IC50 is about 1.7-fold higher than that of the compound before.
With `C[C@@]1(Cc2ccc(C#N)cc2)C(=O)N(c2cc(Cl)cc(Cl)c2)c2ncc(C(=O)NC3(C(=O)NC4(c5cc(C(=O)NCCn6ccnc6)ccn5)CC4)CC3)n21` [compound 159] the figure was 0.42 nM; with `CC(NC(=O)c1ccc(C2(NC(=O)C3(NC(=O)c4cnc5n4[C@](C)(Cc4ccc(C#N)cc4)C(=O)N5c4cc(Cl)cc(Cl)c4)CC3)CC2)nc1)c1ccccn1` (stereo partly drawn) [compound 160], 0.37 nM.
The compound `C[C@@]1(Cc2ccc(C#N)cc2)C(=O)N(c2cc(Cl)cc(Cl)c2)c2ncc(C(=O)NC3(C(=O)NC4(c5cccc(C(=O)N6CCCC(CO)C6)n5)CC4)CC3)n21` (stereo partly drawn) [compound 161] displayed a half-maximal inhibitory concentration (IC50) of 0.75 nM.

These data come from patent US8481750B2 (Boehringer Ingelheim International GmbH, priority 2009, dated 2013).
